# From PMC12682947, “Identification of New KCNT1‐Epilepsy Drugs by In Silico, Cell, and Drosophila Modeling” (Annals of Neurology, 2025)
# Counter-ions that a name gives are not always drawn.
# Molecular target: T1, R398Q mutant KCNT1 channels (Homo sapiens, UniProt Q5JUK3, R379Q)
# T1 construct: YFP-6His; expressed in transfected cells; host or cells: HEK293T
# T1 sequence (Q5JUK3 1-1235 isoform Q5JUK3-3 R398Q): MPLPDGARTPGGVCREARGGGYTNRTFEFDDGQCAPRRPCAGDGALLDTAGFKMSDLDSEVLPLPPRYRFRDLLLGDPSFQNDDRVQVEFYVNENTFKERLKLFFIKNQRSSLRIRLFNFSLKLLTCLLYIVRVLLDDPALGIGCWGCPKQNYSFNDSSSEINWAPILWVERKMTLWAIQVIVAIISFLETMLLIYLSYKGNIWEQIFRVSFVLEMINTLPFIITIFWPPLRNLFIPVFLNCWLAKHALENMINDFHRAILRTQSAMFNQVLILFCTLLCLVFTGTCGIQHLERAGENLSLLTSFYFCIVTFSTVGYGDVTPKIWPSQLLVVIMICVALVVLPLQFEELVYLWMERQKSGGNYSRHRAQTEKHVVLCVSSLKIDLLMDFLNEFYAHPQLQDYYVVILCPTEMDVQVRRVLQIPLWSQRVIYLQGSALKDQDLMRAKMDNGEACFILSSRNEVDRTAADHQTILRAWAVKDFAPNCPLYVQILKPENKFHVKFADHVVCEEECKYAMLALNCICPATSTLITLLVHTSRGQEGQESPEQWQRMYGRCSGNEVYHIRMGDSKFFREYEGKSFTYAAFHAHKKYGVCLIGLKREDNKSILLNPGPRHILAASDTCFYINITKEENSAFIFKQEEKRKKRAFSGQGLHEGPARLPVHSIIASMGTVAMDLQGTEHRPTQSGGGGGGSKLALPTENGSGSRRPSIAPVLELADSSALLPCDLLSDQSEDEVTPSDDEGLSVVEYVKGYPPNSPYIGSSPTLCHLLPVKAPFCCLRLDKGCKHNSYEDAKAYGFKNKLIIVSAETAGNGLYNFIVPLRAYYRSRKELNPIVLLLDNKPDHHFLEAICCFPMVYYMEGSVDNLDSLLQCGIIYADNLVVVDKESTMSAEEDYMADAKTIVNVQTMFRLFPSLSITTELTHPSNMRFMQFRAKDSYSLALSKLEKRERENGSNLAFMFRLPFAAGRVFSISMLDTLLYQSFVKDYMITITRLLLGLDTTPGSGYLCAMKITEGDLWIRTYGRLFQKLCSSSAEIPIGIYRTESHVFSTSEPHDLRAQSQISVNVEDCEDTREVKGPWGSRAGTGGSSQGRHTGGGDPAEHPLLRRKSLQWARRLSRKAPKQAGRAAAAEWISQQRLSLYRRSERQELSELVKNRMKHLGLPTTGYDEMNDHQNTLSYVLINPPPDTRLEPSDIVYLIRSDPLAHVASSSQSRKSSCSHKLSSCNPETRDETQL
# Test: Inside-out patch clamp of HEK293T cells expressing R398Q KCNT1
# Format: cell-based
# Details: inside-out patches, mean ± SEM
# Experimental: The CHO cells were cultured in Dulbecco's modified Eagle's Medium (ThermoFisher, UK) supplemented with 10% (v/v) fetal bovine serum, 50 U/ml penicillin and 0.05 mg/ml streptomycin, and incubated at 37°C in 5% CO2 atmosphere. For whole cell recording of WT/Y796H KCNT1, CHO cells were transiently co‐transfected with concatemeric WT/Y796H and EYFP, as described previously.[29] For electrophysiological experiments, cells were plated onto borosilicate glass cover slips and used 2 to 4 days later. Human embryonic kidney 293T cells (HEK293T) were cultured in the same manner, but with medium supplemented with 2 mM L‐glutamine, and 1% (v/v) nonessential amino acids. For excised inside‐out recording of homomeric WT or mutant YFP‐tagged KCNT1, HEK293T cells plated on glass cover slips were transfected using Attractene Transfection Reagent (Qiagen, Germany) according to the manufacturer's instructions and used 2 to 3 days later.
# Inside‐out patch clamp recordings were made at room temperature (23°C) from transiently transfected HEK293T cells, as described previously.[11] The pipette solution contained, in mM, 140 NaCl, 4 KCl, 2 CaCl2, 2 MgCl2, and 10 HEPES adjusted to pH 7.4 with NaOH. […] KCNT1 currents were recorded using 2 voltage protocols, depending on the number of active channels in the patch before drug application. Macroscopic currents (number of active channels > 15) were recorded in response to 100 ms voltage ramps between −120 and 120 mV applied every 2 seconds from a holding potential of −78 mV. […] With a lower number of active channels in the patch (3–15), current traces were recorded in response to 15‐second voltage steps to −20, 0, and 20 mV from a holding potential of −78 mV. Currents recorded at each voltage and each drug concentration were averaged over the duration of the trace and normalized to the average amplitudes of the corresponding current traces in drug‐free solution. […] Single channel data were analyzed using Ana software developed by Dr Michael Pusch (Istituto di Biofisica, Genova, Italy; http://users.ge.ibf.cnr.it/pusch/programs-mik.htm). […]
row,SMILES,IC50
1,CC(C)c1c(C(=O)Nc2ccccc2)c(-c2ccccc2)c(-c2ccc(F)cc2)n1CC[C@@H](O)C[C@@H](O)CC(=O)O [atorvastatin],4500 ± 1700 nM
2,O=C(OCCN1CCN(c2cccc(C(F)(F)F)c2)CC1)c1ccccc1Nc1ccnc2cc(C(F)(F)F)ccc12 [antrafenine],30.7 ± 7.4 nM
3,Cc1c(O)cccc1C(=O)N[C@@H](CSc1ccccc1)[C@H](O)CN1C[C@H]2CCCC[C@H]2C[C@H]1C(=O)NC(C)(C)C [nelfinavir mesylate],11.2 ± 2.2 nM
